From ChEMBL document CHEMBL4002563 (Eur J Med Chem, 2017)
pIC50: −log10 of the molar value. The source made the active and inactive calls. The rule behind the calls is not given here.

Tests used:
[1] = target: Rho GTPase Rac1/CDC42 (Homo sapiens, UniProt P60953+P63000); experiment: Inhibition of RAC1/CDC42 in human ovarian cancer cells; type: cell-based
[2] = Inhibition of PAK1/COX2 in human A549 cells harboring Ki-RAS mutant assessed as cell growth inhibition measured after 72 hrs by MTT assay; type: cell-based; conditions: A549, 72 h
[3] = tested on: B16-F10; experiment: Cytotoxicity against PAK1-independent mouse B16F10 cells assessed as cell growth inhibition measured after 72 hrs by MTT assay; type: functional, cell-based; conditions: B16-F10, 72 h
[4] = target: Serine/threonine-protein kinase PAK 1 (Homo sapiens, UniProt Q13153); experiment: Inhibition of PAK1 in human A549 cells using myelin basic protein as substrate preincubated for 24 hrs followed by PAK1 immunoprecipation and substrate addition measured after 60 mins by ATP-Glo kinase assay
[5] = target: T1, Prostaglandin G/H synthase 2 (Homo sapiens, UniProt P35354); experiment: Inhibition of recombinant human COX2 using arachidonic acid as substrate measured after 2 to 5 mins
T1 sequence (P35354 whole entry): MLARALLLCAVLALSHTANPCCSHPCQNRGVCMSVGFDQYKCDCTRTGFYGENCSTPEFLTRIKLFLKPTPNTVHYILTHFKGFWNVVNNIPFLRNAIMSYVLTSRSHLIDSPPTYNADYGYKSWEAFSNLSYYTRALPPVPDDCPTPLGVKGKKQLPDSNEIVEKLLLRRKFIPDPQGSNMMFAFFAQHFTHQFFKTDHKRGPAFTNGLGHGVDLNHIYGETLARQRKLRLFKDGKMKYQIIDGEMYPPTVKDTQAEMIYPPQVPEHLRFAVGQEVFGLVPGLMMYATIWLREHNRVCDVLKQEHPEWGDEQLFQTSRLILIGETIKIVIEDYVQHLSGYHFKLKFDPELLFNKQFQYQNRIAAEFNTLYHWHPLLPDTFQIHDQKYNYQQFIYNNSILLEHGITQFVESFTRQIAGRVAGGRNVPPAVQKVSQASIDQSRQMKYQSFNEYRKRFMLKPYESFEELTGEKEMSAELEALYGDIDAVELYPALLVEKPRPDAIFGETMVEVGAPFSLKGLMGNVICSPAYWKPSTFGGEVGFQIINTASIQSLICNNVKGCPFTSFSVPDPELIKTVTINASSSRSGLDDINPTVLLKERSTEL

[6] = tested on: EMT6; experiment: Cytotoxicity against multidrug-resistant mouse EMT6 cells at 100 uM measured after 24 hrs by MTT assay; type: functional, cell-based
[7] = Drug-uptake in multidrug-resistant mouse EMT6 cells at 100 uM measured after 1 hr by HPLC method; type: ADME, cell-based; conditions: emt6, 1 h
[8] = Inhibition of PAK1/COX2 in human A549 cells harboring Ki-RAS mutant assessed as cell growth inhibition measured after 72 hrs by trypan blue assay; type: cell-based; conditions: A549, 72 h
[9] = Drug metabolism in human A549 cells assessed as mitochondrial reductase mediated azo dye formation by colorimetric method; type: ADME, cell-based
[10] = Drug-uptake in multidrug-resistant mouse EMT6 cells at 100 uM measured after 6 hrs by HPLC method; type: ADME, cell-based; conditions: emt6, 6 h
[11] = tested on: LIM1899; experiment: Cytotoxicity against human LIM1899 cells up to 100 uM measured after 24 hrs by trypan blue assay; type: functional, cell-based

Sequence of Serine/threonine-protein kinase PAK 1 (Q13153 whole entry): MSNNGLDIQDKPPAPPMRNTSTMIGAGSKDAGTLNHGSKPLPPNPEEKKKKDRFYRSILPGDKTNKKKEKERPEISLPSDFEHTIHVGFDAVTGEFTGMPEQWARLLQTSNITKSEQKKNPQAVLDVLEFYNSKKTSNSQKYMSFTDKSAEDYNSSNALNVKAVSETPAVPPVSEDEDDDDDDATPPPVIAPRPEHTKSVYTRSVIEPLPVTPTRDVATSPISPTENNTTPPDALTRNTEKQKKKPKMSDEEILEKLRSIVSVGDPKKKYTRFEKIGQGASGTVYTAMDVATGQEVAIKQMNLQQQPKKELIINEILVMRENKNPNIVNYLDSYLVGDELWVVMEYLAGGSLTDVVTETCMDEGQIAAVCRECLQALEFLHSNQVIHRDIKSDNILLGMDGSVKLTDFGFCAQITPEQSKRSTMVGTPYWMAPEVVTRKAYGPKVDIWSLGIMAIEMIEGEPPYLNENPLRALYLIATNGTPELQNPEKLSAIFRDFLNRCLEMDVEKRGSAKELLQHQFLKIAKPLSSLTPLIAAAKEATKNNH

Compound | IC50 [1] [µM] | pIC50 [2] | pIC50 [3] | pIC50 [4] | pIC50 [5] | Activity [6] | Drug uptake [7] [nmol] | pIC50 [8] | Drug metabolism [9] | Drug uptake [10] | Activity [11]
O=C(c1ccccc1)c1ccc2n1CC[C@H]2C(=O)O | 1 |  |  |  |  |  |  |  |  |  | 
O=C(c1ccccc1)c1ccc2n1CCC2C(=O)O (stereo not given) [KETOROLAC] | 2 | 4.89 | 4.52 | 4.44 | 6.85 | inactive | 0.37 |  |  |  | 
COc1ccccc1-n1cc(COC(=O)C2CCn3c(C(=O)c4ccccc4)ccc32)nn1 (stereo not given) |  |  |  | 7.19 |  | inactive | 3.75 | 7.62 | Metabolite_Detected | Not Active | inactive
